System: melanoma cells
Assay: In vitro treatment of tumor cells in culture, flow cytometry (cell cycle analysis, cell death)
Assay type: cell-based
Details: melanoma cells treated in vitro
Method: Tumor cells (B16.F1, NIT-1, or MCF7) were thawed from liquid nitrogen. The tumor cells were transferred into a 15 milliliter (ml) conical tube using a sterile bulb pipette. Using a balance, the tubes were balanced with cells and spun in the centrifuge. The liquid was removed using the vacuum, leaving the pellet of cells. The cells were mixed using two mls of the RPMI. In a 24 well plate, 1 ml of RPMI was placed in each well. One ml of cells was placed into the first well and the second ml was missed into the second well, then one ml was transferred from the second well into the third. The process was repeated until one ml will remain for the last well (serial dilutions). After two to three days the cells were confluent enough to transfer from a well into a flask. After around 24 hours the treatments were added to the appropriate flasks (control, chloroquine, Avastin, both). After 48 hrs. the cells were stained using lysotracker and propidium idodide. The plate was run in the flow cytometer to check the growth arrest and the amount of lysosomic activity as well as the amount of cell death.

avastin: humanized monoclonal antibody against VEGF-A, trade name Avastin, Genentech/Roche
growth arrest by cell cycle analysis: growth arresting the melanoma cells in G0-G1 phase

Source: patent US9073985B2, “Methods and products for treating proliferative diseases” (The Regents of the University of Colorado, a body corporate, priority 2008, dated 2015)
